Active and inactive are the calls of the source.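 The calls were made as follows: active = compounds giving half or more protection of infected cells from virus-caused growth loss, again on retest; inactive = the rest.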
Test system: CEM cells HIV-1 protection, formazan growth assay
Assay: NCI AIDS Antiviral Assay
Details: for IC50: measured here: growth of uninfected CEM cells
In short: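 Human CEM cells, uninfected and HIV-1-infected, received five drug concentrations, and growth was read by soluble formazan assay. Compounds giving at least 50% protection were retested; reproducible 100% protection defined confirmed active.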

Compound	EC50 [µM]	IC50 [µM]	outcome
COc1ccc(-c2c(C(C)=O)c(C)n(C3OC(CO)C(O)C(O)C3O)c(=S)c2C#N)cc1 (stereo not given)	> 200	58.9	–
COc1cc(N(C)C)c(OC)cc1/C=C1\Cc2ccccc2C1=O	> 57.5	46.8	–
O=C(Nc1ccc(Cl)cc1Cl)C1C(=O)OC2(CCCCC2)OC1=O	> 200	13.8	–
Cc1cc(O)cc(C)c1Cl	162	> 200	–
O=c1ccc2cc3ccc4cccc5ccc(c2o1)c3c45	–	–	inactive
C(#CCN1CCCCCC1)CN1CCCCCC1	182	> 200	–
Nc1ccccc1CN1C(=O)c2ccccc2C1=O	> 200	3.55	–
Cc1ccc(Oc2ccc([N+](=O)[O-])cc2[N+](=O)[O-])c(C)c1	–	–	inactive
Cc1nc2ccccc2c(=O)n1NC(=S)Nc1ccc(Cl)cc1	> 39.8	> 39.8	–
CC(C)C1OCC(CO)CO1 (stereo not given)	> 200	> 200	–
Nc1c(N2CCCCC2)c(=O)nc2[nH]/c(=C\c3ccccc3)c(=O)n12	> 200	95.5	–
CC(C)(C)OC(=O)C1CC[C@@H](CC(=O)Oc2ccc([N+](=O)[O-])cc2)N1 (stereo not given in full)	> 200	> 200	–
CCCC(=O)n1[nH]c(=O)n(C(C)(C)C)c1=O	> 200	> 200	–
NC(CO)(CO)CO	> 200	> 200	–
CC(C)N1C(C)[C@@H](c2ccccc2)O[P@]1(=O)CC1=CCCCC1 (stereo not given in full)	–	–	inactive
CCN(CC)CCCC(C)Nc1cc(-c2ccccc2)nc2cc(OC)ccc12 (stereo not given)	> 363	0.741	–
CC(NNC(=O)CC(=O)N(C(=O)c1ccccc1)c1ccc(Cl)cc1)c1cc2ccccc2oc1=O (stereo not given)	> 200	> 200	–
COCN1C(=N)C(C(=O)OC(C)(C)C)=C2C=C(O)C=CC21C (stereo not given)	> 200	1.45	–
CCCN(CCc1ccc(-c2ccccc2)cc1)CCc1ccc2n[nH]nc2c1	> 200	10	–
O=C(O)c1cc(N=Nc2ccc(N=Nc3ccc(S(=O)(=O)O)cc3)cc2)ccc1O	–	–	inactive

Compound	EC50 [µM]	IC50 [µM]	outcome
COc1ccc(/C=C/c2sc3ccccc3[n+]2CCCCI)cc1OC	> 200	7.59	–
O=c1[nH]nc(Cc2ccc(Cl)cc2)n1/N=C\CC/C=N\n1c(Cc2ccc(Cl)cc2)n[nH]c1=O	> 200	148	–
COc1ccc2c(c1[N+](=O)[O-])CC[C@@H]1[C@@H]2CC[C@]2(C)C(=O)CC[C@@H]12	> 11	> 11	–
CCn1cc(C(=O)O)c(=O)c2cc3c(cc21)OCO3	> 38	> 38	–
CC(C)c1cc(=O)oc2c3c(ccc12)OC(C)(C)[C@H](OC(=O)C12CCC(C)(C(=O)O1)C2(C)C)[C@@H]3OC(=O)C12CCC(C)(C(=O)O1)C2(C)C (stereo not given in full)	0.324	33.9	–
C1=C(c2ccccc2)NC2=N[C@H]3CCCC[C@@H]3N2C1c1ccccc1 (stereo not given in full)	> 126	8.13	–
Nc1ccc(/C=C/c2ccc(NS(=O)(=O)c3ccnc4c(O)c(C(=O)O)ccc34)cc2S(=O)(=O)O)c(S(=O)(=O)O)c1	69.2	> 100	–
COCCCC(NC(=O)C(CC(C)C)NC(=O)OCc1ccc(OC)cc1)C(=O)OC (stereo not given)	> 200	33.1	–
CC1(C)C2CCC1C(SC(=N)N)C2 (stereo not given)	> 200	43.7	–
COC(=O)C(CNC(=O)/C=C/c1ccc(OC(C)=O)c(OC(C)=O)c1)NC(=O)/C=C/c1ccc(OC(C)=O)c(OC(C)=O)c1 (stereo not given)	> 200	36.3	–
O=S(O)CCCCSSSCCCCS(=O)O	> 200	2.69	–
Brc1c2c(c(Br)c3nsnc13)N=S=N2	–	–	inactive
O=C(O)COc1ccc(S(=O)(=O)c2ccc(OCC(=O)O)c([N+](=O)[O-])c2)cc1[N+](=O)[O-]	> 200	> 200	–
COc1ccc(/C=C2\Sc3scc(-c4ccc([N+](=O)[O-])cc4)[n+]3C2=O)cc1OC	> 200	15.8	–
O=C1/C(=C/c2ccc(Cl)cc2)CCCc2ccccc21	> 200	22.9	–
CC(C)CCC[C@@H](C)[C@H]1CC[C@H]2[C@@H]3CC[C@H]4C[C@@H](CCC=C(c5cc(Cl)c(OCc6ccc(C(=O)O)cc6)c(C(=O)O)c5)c5cc(Cl)c(OCc6ccc(C(=O)O)cc6)c(C(=O)O)c5)CC[C@]4(C)[C@H]3CC[C@]12C	2.51	50.1	–
O=C(O)/C(=C/C=C/c1ccccc1)c1csc(-c2nc(/C(=C\C=C\c3ccccc3)C(=O)O)cs2)n1	> 182	> 100	–
Cc1ccc(S(=O)(=O)SSSSS(=O)(=O)c2ccc(C)cc2)cc1	> 30.9	> 30.9	–
CC(=O)NC1C(OCc2ccccc2)OC(CO)C(O)C1OC(C)C(=O)NC(C)C(=O)N[C@@H](CCC(=O)OCCCNC1c2ccccc2Nc2cccc([N+](=O)[O-])c21)C(N)=O (stereo not given in full)	–	–	inactive
CCCCC(CCCCCC(CCCC)C1NC(C)Cc2cc(OC)c(OC)cc21)C1NC(C)Cc2cc(OC)c(OC)cc21 (stereo not given)	> 200	0.447	–

Compound	EC50 [µM]	IC50 [µM]	outcome
CSc1nc(C#N)c(N)n1C	> 200	> 200	–
COC(=O)CCC(C)C1CCC2C3CC[C@@H]4CC(CO)CCC4(C)C3CCC12C (stereo not given in full)	> 6.76	> 6.76	–
C/C(CC(=O)Nc1ccc([N+](=O)[O-])cc1)=N\Nc1ccc([N+](=O)[O-])cc1[N+](=O)[O-]	> 24.5	> 24.5	–
Nc1ccc(N=Nc2ccc(N=Nc3ccc(N=Nc4cc(S(=O)(=O)O)c5ccccc5c4O)c4ccc(S(=O)(=O)O)cc34)c3ccc(S(=O)(=O)O)cc23)cc1	–	–	active
CCC1=C(c2ccc(OC)cc2)CCC2(CCNC2)C1C (stereo not given)	> 513	10.5	–
CC(=O)Oc1cccc2c1ccc1nonc12	> 174	28.2	–
CN(/N=C(\C(=O)O)c1ccccc1)C1=NCCN1	> 200	> 200	–
CCOC(=O)CN(Cn1cncn1)Cn1cncn1	> 200	28.8	–
CC1CCCC(C(O)CC2CC(=O)NC(=O)C2)C1O (stereo not given)	> 200	> 200	–
O=C(O)CCC(NC(=O)c1ccccc1)C(=O)O (stereo not given)	–	–	inactive
CCOC(=O)C1=NN(c2ccccc2)C(=O)/C1=C\n1ccc(=O)[nH]c1=S	–	–	inactive
O=C(NNC(=O)/C(=C/c1cccc([N+](=O)[O-])c1)NC(=O)c1ccccc1)Nc1ccc(Cl)cc1	> 38.9	24.5	–
Cc1ccc(N2CC(=O)N3CCCC(C)N3C(=O)C2)cc1 (stereo not given)	> 200	174	–
CNC(=O)c1cc(NC(=O)N(CCC#N)CCN(C(=O)N[C@@H](Cc2ccccc2)C(=O)N[C@@H](CC(C)C)C(=O)NC)c2ccccc2)ccc1OC	> 200	32.4	–
COC(=O)CCCC=C(c1cc(Cl)c(OC)c(C2=NC(C)(C)CO2)c1)c1cc(Cl)c(OC)c(C2=NC(C)(C)CO2)c1	–	–	inactive
CC(C)(C)C1COP(=O)(c2ccccc2)N(c2ccccc2)C1 (stereo not given)	> 200	38	–
[Cl-].[Cl-].[Pt+4].[S-]c1ncccn1.[S-]c1ncccn1	> 100	0.355	–
CC1C2C=C(O)C(=O)C(C2=O)C1c1ccccc1 (stereo not given)	> 741	141	–
O=c1/c(=C/c2ccccc2)sc2nc(-c3ccccc3)nn12	> 200	> 200	–
O=C(NC1=C(Cl)C(=O)c2ccccc2C1=O)C(=O)C(C(=O)c1ccc2ccccc2c1)C1OC(=O)c2ccccc21 (stereo not given)	> 45.7	11.5	–
